#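 Abbreviation: GI50, concentration required for 50% inhibition of growth. TGI denotes the concentration required for complete inhibition of growth.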
# Tests used:
# Experiment in all cases: inhibition of tumour cell growth, NCI panel, 384-well format
# 786-0 renal = system: 786-0 renal
# A498 renal = system: A498 renal
# A549 NSCLC = system: A549 NSCLC
# ACHN renal = system: ACHN renal
# BT-549 breast = system: BT-549 breast
# CAKI-1 renal = system: CAKI-1 renal
# CCRF-CEM leukemia = system: CCRF-CEM leukemia
# COLO 205 colon = system: COLO 205 colon
# DU-145 prostate = system: DU-145 prostate
# EKVX NSCLC = system: EKVX NSCLC
# HCC-2998 colon = system: HCC-2998 colon
# HCT-116 colon = system: HCT-116 colon
# HCT-15 colon = system: HCT-15 colon
# HL-60(TB) leukemia = system: HL-60(TB) leukemia
# HOP-62 NSCLC = system: HOP-62 NSCLC
# HOP-92 NSCLC = system: HOP-92 NSCLC
# HS 578T breast = system: HS 578T breast
# HT29 colon = system: HT29 colon
# IGROV1 ovarian = system: IGROV1 ovarian
# K-562 leukemia = system: K-562 leukemia
# KM12 colon = system: KM12 colon
# LOX IMVI melanoma = system: LOX IMVI melanoma
# M14 melanoma = system: M14 melanoma
# MALME-3M melanoma = system: MALME-3M melanoma
# MCF7 breast = system: MCF7 breast
# MDA-MB-231 breast = system: MDA-MB-231 breast
# MDA-MB-435 melanoma = system: MDA-MB-435 melanoma
# MDA-MB-468 breast = system: MDA-MB-468 breast
# MOLT-4 leukemia = system: MOLT-4 leukemia
smiles,measurement,setting,value
COc1c(C)cnc(Cn2cnc3c(Cl)nc(N)nc32)c1C,GI50,786-0 renal,89.4 nM
same,TGI,786-0 renal,2780 nM
same,GI50,A498 renal,381 nM
same,TGI,A498 renal,> 100000 nM
same,GI50,A549 NSCLC,73.9 nM
same,TGI,A549 NSCLC,> 100000 nM
same,GI50,ACHN renal,163 nM
same,TGI,ACHN renal,38000 nM
same,GI50,BT-549 breast,50.8 nM
same,TGI,BT-549 breast,269 nM
same,GI50,CAKI-1 renal,470 nM
same,TGI,CAKI-1 renal,2870 nM
same,GI50,CCRF-CEM leukemia,36.9 nM
same,TGI,CCRF-CEM leukemia,430 nM
same,GI50,COLO 205 colon,28.6 nM
same,TGI,COLO 205 colon,98.1 nM
same,GI50,DU-145 prostate,40.7 nM
same,TGI,DU-145 prostate,1410 nM
same,GI50,EKVX NSCLC,319 nM
same,TGI,EKVX NSCLC,5030 nM
same,GI50,HCC-2998 colon,92.3 nM
same,TGI,HCC-2998 colon,438 nM
same,GI50,HCT-116 colon,194 nM
same,TGI,HCT-116 colon,> 100000 nM
same,GI50,HCT-15 colon,59.6 nM
same,TGI,HCT-15 colon,13100 nM
same,GI50,HL-60(TB) leukemia,52.2 nM
same,TGI,HL-60(TB) leukemia,172 nM
same,GI50,HOP-62 NSCLC,112 nM
same,TGI,HOP-62 NSCLC,1150 nM
same,GI50,HOP-92 NSCLC,241 nM
same,TGI,HOP-92 NSCLC,737 nM
same,GI50,HS 578T breast,307 nM
same,TGI,HS 578T breast,1410 nM
same,GI50,HT29 colon,61.5 nM
same,TGI,HT29 colon,> 100000 nM
same,GI50,IGROV1 ovarian,55.9 nM
same,TGI,IGROV1 ovarian,626 nM
same,GI50,K-562 leukemia,55.8 nM
same,TGI,K-562 leukemia,621 nM
same,GI50,KM12 colon,52.3 nM
same,TGI,KM12 colon,14000 nM
same,GI50,LOX IMVI melanoma,115 nM
same,TGI,LOX IMVI melanoma,245 nM
same,GI50,M14 melanoma,287 nM
same,TGI,M14 melanoma,18100 nM
same,GI50,MALME-3M melanoma,189 nM
same,TGI,MALME-3M melanoma,438 nM
same,GI50,MCF7 breast,51.2 nM
same,TGI,MCF7 breast,> 100000 nM
same,GI50,MDA-MB-231 breast,272 nM
same,TGI,MDA-MB-231 breast,927 nM
same,GI50,MDA-MB-435 melanoma,154 nM
same,TGI,MDA-MB-435 melanoma,53700 nM
same,GI50,MDA-MB-468 breast,62.2 nM
same,TGI,MDA-MB-468 breast,276 nM
same,GI50,MOLT-4 leukemia,36.2 nM
same,TGI,MOLT-4 leukemia,123 nM

# Source: PubChem BioAssay (NCI)
